“And” between values parts separate entries of the source, which are not always exact repeats. Equal values may be shown once. Read-outs that look alike come from different tables or passages of the source.
Key:
GLP-1 (X-36 amide) = experiment: Plasma GLP-1 response to oral compound in mice; assay type: in vivo, Mice (male C57BL/6); details: oral 100 mg/kg, plasma 30 minutes post-dose
Experimental: (§1) Mice (male C57BL/6, 8-10 weeks of age) were fasted overnight by being placed in a clean cage without food. The next day, all mice were weighed and assigned to groups of similar body weights. Test compounds were formulated in 1% HEC, 0.25% TWEEN 80, 0.05% antifoam (vehicle control). Compounds 11ls and llu were orally dosed (100 mg/kg) and cardiac sticks were done on CO2 euthanized mice at 30 minutes post-dose. Blood (500+μL whole blood) from the cardiac stick was placed in chilled EDTA-plasma tubes with inhibitors, DPP4 inhibitor (5 μL/500 μL blood) and aprotinin (bovine lung, […]/500 μL blood), and stored on ice. Plasma was separated by centrifugation and aliquoted for compound exposure to total GIP and GLP-1 (X-36 amide). Plates for compound exposure were analyzed for absorption, distribution, metabolism, and excretion, while conventional kits were used for GLP-1 (x-36) amide (Mesoscale) and GIP (Millipore) analyses.

hMGLUR2 = hMGLUR2 (Homo sapiens, UniProt Q14416); experiment: mGlu2R antagonist, hMGLUR2; assay type: cell-based
Source text: (§2) Selected compounds of this invention were screened for K-Ras Wnt synthetic lethal, anti-angiogenic activity, Wnt pathway modulatory activity, insulin and GLP-1 secretion modulatory activity, GPR119 receptor agonist activity, mGlu2R antagonist activity, CGRP receptor antagonist activity, Apelin receptor agonist activity and hexokinase 2 inhibitory activity using the PD^2 and TD^2 Screening Panel (Eli Lilly & Company). See Lee, et al. (2011) J. Biomol. Screen. 16:588-602.

SNU-C1 = experiment: K-Ras Wnt synthetic lethal, SNU-C1 KrasSL; assay type: cell-based; details: Homo sapiens, read-out: SNU-C1 KrasSL % Inhibit
Source text: as §2

Insulin Secretion = experiment: Insulin secretion, Secretion Hi Gluc; assay type: cell-based
Source text: as §2

hHK2 = target: T1, hHK2 (Homo sapiens, UniProt P52789); experiment: Hexokinase 2 inhibitor, hHK2 ADP-FP; assay type: biochemical
T1 sequence (P52789 1-917): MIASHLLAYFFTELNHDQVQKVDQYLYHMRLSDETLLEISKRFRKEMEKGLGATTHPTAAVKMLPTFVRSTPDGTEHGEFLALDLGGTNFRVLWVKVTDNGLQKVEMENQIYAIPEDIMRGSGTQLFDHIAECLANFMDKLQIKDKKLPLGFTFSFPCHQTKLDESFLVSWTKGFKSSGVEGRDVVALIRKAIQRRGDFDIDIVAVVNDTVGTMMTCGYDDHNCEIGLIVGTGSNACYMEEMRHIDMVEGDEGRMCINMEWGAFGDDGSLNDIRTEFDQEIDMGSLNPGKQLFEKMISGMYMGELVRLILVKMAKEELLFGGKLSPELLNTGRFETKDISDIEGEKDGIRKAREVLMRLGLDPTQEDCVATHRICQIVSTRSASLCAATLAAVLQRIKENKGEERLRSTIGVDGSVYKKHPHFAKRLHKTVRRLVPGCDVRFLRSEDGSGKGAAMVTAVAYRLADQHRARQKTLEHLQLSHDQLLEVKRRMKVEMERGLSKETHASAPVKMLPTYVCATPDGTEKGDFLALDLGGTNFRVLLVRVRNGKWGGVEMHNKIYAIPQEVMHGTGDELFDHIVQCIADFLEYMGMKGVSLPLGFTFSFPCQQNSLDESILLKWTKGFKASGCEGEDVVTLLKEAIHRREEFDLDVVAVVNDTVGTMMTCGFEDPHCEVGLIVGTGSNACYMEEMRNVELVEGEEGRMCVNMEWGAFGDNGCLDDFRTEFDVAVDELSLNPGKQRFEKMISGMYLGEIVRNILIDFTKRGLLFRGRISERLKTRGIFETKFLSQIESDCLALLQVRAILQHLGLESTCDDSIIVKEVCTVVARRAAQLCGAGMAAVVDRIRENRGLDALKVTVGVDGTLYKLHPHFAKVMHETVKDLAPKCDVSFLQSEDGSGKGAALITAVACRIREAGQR
Source text: as §2

Pituitary Cells = experiment: Secondary assay, pituitary cells growth hormone secretion; assay type: cell-based; details: @ 3.3 μM
Experimental: (§3) In light of the above results, additional compounds (Table 7) were prepared and phenotypic assays were carried out using hNCI-H716 and mSTC-1 cell lines to monitor GLP-1 secretion (single point (SP) and concentration response curves (CRC)) (Table 8), as well as a secondary assay with pituitary cells (Table 9).

hNCI-H716 = hNCI-H716 GLP-1 secretion; assay type: cell-based
Source text: as §2, §3

HCT116 = experiment: K-Ras Wnt synthetic lethal, HCT116 KrasSL; assay type: cell-based; details: Homo sapiens, HCT-116, read-out: HCT116 KrasSL % Inhibit
Source text: as §2

Wnt Pathway = experiment: Wnt pathway modulatory activity, Osteo bCat; assay type: cell-based
Source text: as §2

Co1o320 = experiment: K-Ras Wnt synthetic lethal, Co1o320 KrasSL; assay type: cell-based; details: read-out: Co1o320 KrasSL % Inhibit
Source text: as §2

hApelin = target: T2, hApelin (Homo sapiens, UniProt P35414); experiment: Apelin receptor agonist, hApelin agonism; assay type: cell-based; details: @ 30 μM
T2 sequence (P35414 1-380): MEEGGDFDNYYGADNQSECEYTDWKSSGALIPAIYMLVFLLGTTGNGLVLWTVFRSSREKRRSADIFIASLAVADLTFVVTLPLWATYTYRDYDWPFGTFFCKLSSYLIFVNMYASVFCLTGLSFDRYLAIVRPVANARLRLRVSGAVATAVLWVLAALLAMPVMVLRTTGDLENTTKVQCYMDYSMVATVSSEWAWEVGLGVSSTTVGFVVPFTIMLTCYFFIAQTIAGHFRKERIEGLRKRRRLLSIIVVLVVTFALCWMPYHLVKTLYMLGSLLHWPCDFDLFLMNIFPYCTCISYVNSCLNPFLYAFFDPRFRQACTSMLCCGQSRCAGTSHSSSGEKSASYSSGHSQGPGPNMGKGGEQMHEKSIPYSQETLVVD
Source text: as §2

GIP = experiment: Plasma GIP response to oral compound in mice; assay type: in vivo, Mice (male C57BL/6); details: oral 100 mg/kg, plasma 30 minutes post-dose
Experimental: as §1

hMGLUR2, sequence (Q14416 19-872): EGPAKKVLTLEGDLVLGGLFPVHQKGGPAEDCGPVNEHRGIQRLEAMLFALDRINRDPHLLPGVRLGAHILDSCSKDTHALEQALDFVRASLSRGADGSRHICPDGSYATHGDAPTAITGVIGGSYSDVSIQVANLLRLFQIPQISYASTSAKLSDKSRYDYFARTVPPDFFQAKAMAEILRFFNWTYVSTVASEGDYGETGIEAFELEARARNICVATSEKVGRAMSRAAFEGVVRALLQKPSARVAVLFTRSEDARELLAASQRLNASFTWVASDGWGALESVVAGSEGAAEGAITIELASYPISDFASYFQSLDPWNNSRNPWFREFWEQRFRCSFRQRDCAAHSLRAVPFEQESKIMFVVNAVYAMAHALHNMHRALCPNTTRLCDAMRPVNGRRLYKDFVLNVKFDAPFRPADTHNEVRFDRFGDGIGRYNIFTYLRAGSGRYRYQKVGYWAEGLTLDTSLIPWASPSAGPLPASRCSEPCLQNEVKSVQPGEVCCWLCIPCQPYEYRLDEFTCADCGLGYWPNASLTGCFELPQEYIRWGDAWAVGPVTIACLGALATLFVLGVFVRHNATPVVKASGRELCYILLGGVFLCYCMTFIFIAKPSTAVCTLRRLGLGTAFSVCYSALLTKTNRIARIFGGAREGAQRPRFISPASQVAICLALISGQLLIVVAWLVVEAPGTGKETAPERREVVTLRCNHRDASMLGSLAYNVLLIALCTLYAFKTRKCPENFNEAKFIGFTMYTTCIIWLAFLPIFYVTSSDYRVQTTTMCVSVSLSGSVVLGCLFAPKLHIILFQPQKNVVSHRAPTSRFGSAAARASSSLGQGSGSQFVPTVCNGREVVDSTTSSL

CC1(C)c2c([nH]c3ccc(Cl)cc23)C2C=CC1C2 (centres unmarked) [Compound 11s]
Avg. GLP-1 (pg/mL) ±SEM (GLP-1 (X-36 amide)): 5.52 ± 1.18 pg/mL
inhibition at 50 µM (hMGLUR2): -20.4%
inhibition at 0.2 µM (SNU-C1; @ 0.2 μM): 15.7%
inhibition at 2 µM (SNU-C1; @ 2 μM): 5.5%
inhibition at 20 µM (SNU-C1; @ 20 μM): 106%
Secretion Hi Gluc % Stimulation (Insulin Secretion; @ 2 μM): −1.2%
Secretion Hi Gluc % Stimulation (Insulin Secretion; @ 10 μM): 15.8%
inhibition at 20 µM (hHK2): 5.5%
Pituitary Cells (Growth Hormone Secretion, % Stimulation) (Pituitary Cells): −10.0% and −17.7% and −18.6%
activation at 2 µM (hNCI-H716; 2 μM, GLP-1 secretion, single point, read-out: Primary SP hNCI (% Stim.)): -1.7%
activation at 20 µM (hNCI-H716; 20 μM, GLP-1 secretion, single point, read-out: Primary SP hNCI (% Stim.)): 108%
hNCI GLP-1 Secretion % Stimulation (hNCI-H716; @ 2 μM): −1.7%
hNCI GLP-1 Secretion % Stimulation (hNCI-H716; @ 20 μM): 108%
EC50 (hNCI-H716; GLP-1 secretion, concentration response curve, read-out: Primary CRC (EC50, μM) hNCI): 34.8 µM and 33.5 µM and 23.2 µM and > 40 µM
EC50 (hNCI-H716; average of three independent experiments, read-out: hNCI GLP-1 Secretion EC50): 34.8 µM
EC50 (hNCI-H716; secretion and/or production of GLP-1, read-out: EC50 values (Table 6)): 35 µM
inhibition at 0.2 µM (HCT116; @ 0.2 μM): 2.3%
inhibition at 2 µM (HCT116; @ 2 μM): -38%
inhibition at 20 µM (HCT116; @ 20 μM): 96.4%
Osteo bCat % Stimulation (Wnt Pathway; @ 2 μM): 1.3%
Osteo bCat % Stimulation (Wnt Pathway; @ 10 μM): 9.3%
inhibition at 0.2 µM (Co1o320; @ 0.2 μM): 33.3%
inhibition at 2 µM (Co1o320; @ 2 μM): 15.8%
inhibition at 20 µM (Co1o320; @ 20 μM): 150%
hApelin agonism % Stimulation (hApelin): −46.2%
Avg. GIP (pg/mL) ±SEM (GIP): 23.42 ± 7.44 pg/mL

— patent publication US9598365B2, “Method for synthesizing cycloalkanyl[b]indoles, cycloalkanyl[b]benzofurans, cycloalkanyl[b]benzothiophenes, compounds and methods of use” (Trustees of Dartmouth College, priority 2012, dated 2017)
